In patent US20050026235A1 (priority 2003, published 2005):

How the values were obtained:
PLA2 = PLA2 (Apis mellifera, UniProt P00630); settings: pH 8
PLA2 from bee venom = PLA2 from bee venom (Apis mellifera, UniProt P00630)
[1] = target: Clostridium perfringens PLC (Clostridium perfringens, UniProt P0C216)
[2] = literature values (Cevc 1993; Adrian et al. 1992); cited from earlier work

Sequence of Clostridium perfringens PLC (P0C216 29-398 limits assumed): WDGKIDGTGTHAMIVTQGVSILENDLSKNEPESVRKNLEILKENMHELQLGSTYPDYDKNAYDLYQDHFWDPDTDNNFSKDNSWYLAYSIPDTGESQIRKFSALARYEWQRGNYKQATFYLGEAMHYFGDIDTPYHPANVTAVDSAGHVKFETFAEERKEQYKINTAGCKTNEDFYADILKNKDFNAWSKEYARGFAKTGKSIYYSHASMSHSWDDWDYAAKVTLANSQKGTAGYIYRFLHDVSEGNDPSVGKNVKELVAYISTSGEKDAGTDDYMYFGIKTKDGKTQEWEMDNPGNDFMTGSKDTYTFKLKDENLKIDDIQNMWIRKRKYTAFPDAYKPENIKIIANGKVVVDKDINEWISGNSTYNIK
Sequence of PLA2 (P00630 34-167 limits assumed): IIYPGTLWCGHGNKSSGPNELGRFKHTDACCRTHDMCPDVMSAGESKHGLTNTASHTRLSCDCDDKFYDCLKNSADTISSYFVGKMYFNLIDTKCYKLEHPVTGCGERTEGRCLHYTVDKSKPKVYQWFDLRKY
Sequence of PLA2 from bee venom (P00630 34-167 limits assumed): as above

Question: With “1,2-dimyristoyl-sn-glycero-3-phosphoethanolamine-N-(Oregon Green 500, 5-isomer) [compound 84]” as the molecule, how does the “time until all substrate converted to polar product” value (PLA2) read?
Answer: about 30 min

Question: For CCCCCCCCCCCCCCCCOCC(COCC(F)(F)F)OP(=O)(O)OC (centres unmarked) [inhibitor 122], which IC50 (PLA2 from bee venom) is on record?
Answer: ~2 µM

Question: For “1,2-dioleoyl-sn-glycero-3-phosphoethanolamine-N-(Oregon Green® 488, 5-isomer) [compound 60]”, which cleavage activity [1] is on record?
Answer: no activity was observed

Question: For CCCCCCCCCCCCCC(=O)OC[C@H](COP(=O)([O-])OCC[N+](C)(C)C)OC(=O)CCCCCCCCCCCCC [DMPC], which CMC [2] is on record?
Answer: about 4 nM

Question: With CCCCCCCCCCCCCC(=O)OC[C@H](COP(=O)(O)OC[C@H](N)C(=O)O)OC(=O)CCCCCCCCCCCCC [DMPS] as the molecule, how does the CMC [2] read?
Answer: about 60 nM
